Experiment [1] deals with Gal4 DNA binding domain fused to the LBD of LXRα in HEK293 cells (Homo sapiens (Human), UniProt Q13133). The experiment in a line: LXR luciferase transcriptional reporter gene assay, agonist mode, LXRα. It is filed as cell-based. To be noted: for pEC50: read-out: Cell LXRα EC50.
The target of the next experiment is LXR α LBD protein (Homo sapiens (Human), UniProt Q13133). The experiment in a line: Human LXRα coactivator recruitment FRET assay, agonist mode. It is filed as biochemical. As for the experimental part: Two μL of the DMSO solutions were transferred to the plate and 38 μL of 10 nM LXRα-LBD or LXRβ-LBD (2×) were added immediately to the wells. The plate was shaken for 5 min at rt on an orbital micro shaker (DPC MicroMix® 5), after which 40 μL of 200 nM fluorescein-SRC2-3 peptide and 20 nM Terbium-anti-GST-antibody (Cat# PV3550, Life Technologies, Grand Island, N.Y.) solution (4×) were added to all. The plate was sealed and shaken for 2 min at rt, and incubated at rt for 2 h without agitation. […] The delay and window times were set at 100 and 200 microseconds, respectively. […] The percent control vs. compound concentration data were fit into a four-parameter model, and EC50 values were calculated from the fit as the concentrations corresponding to the inflection points on the concentration-response curves.
LXR α LBD protein, sequence (Q13133 209-447): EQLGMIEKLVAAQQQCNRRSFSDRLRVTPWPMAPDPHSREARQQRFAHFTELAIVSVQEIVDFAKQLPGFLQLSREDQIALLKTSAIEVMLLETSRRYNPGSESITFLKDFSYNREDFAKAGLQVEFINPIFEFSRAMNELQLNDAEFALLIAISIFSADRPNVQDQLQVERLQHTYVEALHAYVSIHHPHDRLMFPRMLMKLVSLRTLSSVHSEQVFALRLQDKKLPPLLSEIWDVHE

Setting [2] is: Biological Test Example 3, agonist mode.

pEC50: −log10 of the molar value. Where two headings read alike, the source gives them in different places. Some results are limits rather than exact numbers.

Gal4 DNA binding domain fused to the LBD of LXRα in HEK293 cells, sequence (Q13133 209-447): as above

`CS(=O)(=O)c1cccc(N2CCN(Cc3ccc(C(F)(F)F)c(Cl)c3)[C@H](Cc3ccccc3)C2)c1` [46-33, (R)-2-benzyl-1-(3-chloro-4-(trifluoromethyl)benzyl)-4-(3-(methylsulfonyl)phenyl)piperazine]: in experiment [1], the “Cell LXRα efficacy” value is recorded as 2354 (44) %. Moreover, the pEC50 in experiment [1] (agonist mode) is 5.63. On LXR α LBD protein (agonist mode), the pEC50 was 5.59 and the “FRET LXRα efficacy” value was 37%.

For `CC(C)[C@@H]1CN(c2ccc(C#N)c(S(C)(=O)=O)c2)CCN1c1ccc(C(F)(F)F)cn1` [7-37, (R)-4-(3-isopropyl-4-(5-(trifluoromethyl)pyridin-2-yl)piperazin-1-yl)-2-(methylsulfonyl)benzonitrile], the “Cell LXRα efficacy” value in experiment [1] is on record as 1702 (96) %. Moreover, the pEC50 is 5.77 in experiment [1] (agonist mode) and 5.58 at LXR α LBD protein (agonist mode). Also, the “FRET LXRα efficacy” value at LXR α LBD protein (agonist mode) turned out to be 220%.

In the case of `CS(=O)(=O)c1cc(N2CCN(Cc3ccc(C(F)(F)F)nc3)C(c3ccccc3)C2)ccc1C(N)=O` (stereo not drawn) [46-58, 2-(methylsulfonyl)-4-(3-phenyl-4-((6-(trifluoromethyl)pyridin-3-yl)methyl)piperazin-1-yl)benzamide], the “Cell LXRα efficacy” value in experiment [1] was 6986 (8) %. The pEC50 in experiment [1] (agonist mode) was 5.16; at LXR α LBD protein (agonist mode), less than 4.30.

For the compound `CC(C)[C@@H]1CN(c2ccc(C#N)c(S(C)(=O)=O)c2)CCN1c1cc(C(F)(F)F)ccn1` [7-39, (R)-4-(3-isopropyl-4-(4-(trifluoromethyl)pyridin-2-yl)piperazin-1-yl)-2-(methylsulfonyl)benzonitrile], the “Cell LXRα efficacy” value in experiment [1] is 1502 (80) %. Further, the pEC50 in experiment [1] (agonist mode) was 5.82. Also, on LXR α LBD protein (agonist mode), the pEC50 is 5.84 and the “FRET LXRα efficacy” value turned out to be 191%.

`CS(=O)(=O)c1cc(N2CCN(Cc3ccc(C(F)(F)F)nc3)C(c3ccccc3)C2)ccc1F` (stereo not drawn) [46-52, 4-(4-fluoro-3-(methylsulfonyl)phenyl)-2-phenyl-1-((6-(trifluoromethyl)pyridin-3-yl)methyl)piperazine]: the “Cell LXRα efficacy” value in experiment [1] is given as 11699 (17) %. Moreover, the pEC50 in experiment [1] (agonist mode) was 4.93. Besides, at LXR α LBD protein (agonist mode), the pEC50 was 5.28 and the “FRET LXRα efficacy” value is on record as 20%.

In the case of `CS(=O)(=O)c1cccc(N2CCN(Cc3ccc(C(F)(F)F)c(Cl)c3)[C@@H](Cc3ccccc3)C2)c1` [Cpd No 45-1, (S)-2-benzyl-1-(3-chloro-4-(trifluoromethyl)benzyl)-4-(3-(methylsulfonyl)phenyl)piperazine], in experiment [1], the “Cell LXRα efficacy” value is given as 3618 (61) % and the pEC50 was 5.44. Besides, on LXR α LBD protein (agonist mode), the “FRET LXRα efficacy” value is 39%.

For the compound `CS(=O)(=O)c1cc(N2CCN(Cc3ccc(C(F)(F)F)c(Cl)c3)C(c3ccccc3)C2)ccc1CO` (stereo not drawn) [47-4, (4-(4-(3-chloro-4-(trifluoromethyl)benzyl)-3-phenylpiperazin-1-yl)-2-(methylsulfonyl)phenyl)methanol], the “Cell LXRα efficacy” value in experiment [1] is 914 (96) %. The pEC50 was 6.04 in experiment [1] (agonist mode) and 6.65 on LXR α LBD protein (agonist mode). Also, on LXR α LBD protein (agonist mode), the “FRET LXRα efficacy” value was determined as 109%.

With `CC(C)(C)C1CN(c2ccc(F)c(S(C)(=O)=O)c2)CCN1c1nccc(C(F)(F)F)n1` (stereo not drawn) [7-29, 2-(2-(tert-butyl)-4-(4-fluoro-3-(methylsulfonyl)phenyl)piperazin-1-yl)-4-(trifluoromethyl)pyrimidine], the “Cell LXRα efficacy” value in experiment [1] is recorded as 150 (92) %. The negative logarithm of the EC50 (pEC50) in experiment [1] (agonist mode) is 6.82. At LXR α LBD protein (agonist mode), the pEC50 was 6.79 and the “FRET LXRα efficacy” value stood at 101%.

Regarding `CS(=O)(=O)c1cccc(N2CCN(Cc3ccc(C(F)(F)F)nc3)C(c3ccccc3Br)C2)c1` (stereo not drawn) [46-60, 2-(2-bromophenyl)-4-(3-(methylsulfonyl)phenyl)-1-((6-(trifluoromethyl)pyridin-3-yl)methyl)piperazine], the “Cell LXRα efficacy” value in experiment [1] is reported as 4383 (33) %. The pEC50 in experiment [1] (agonist mode) is 5.36. The “FRET LXRα efficacy” value on LXR α LBD protein (agonist mode) is listed as 39%.

On to `COC(=O)[C@@H]1CN(c2cccc(S(C)(=O)=O)c2)CCN1C(=O)OC(C)(C)C` [1-4, 1-(tert-butyl) 2-methyl (S)-4-(3-(methylsulfonyl)phenyl)piperazine-1,2-dicarboxylate], for which the “Cell LXRα efficacy” value in experiment [1] is listed as 14195 (49) %. Moreover, the pEC50 in experiment [1] (agonist mode) was 4.85. Also, at LXR α LBD protein (agonist mode), the pEC50 was 4.87 and the “FRET LXRα efficacy” value was determined as 67%.

On to `CC(C)(C)OC(=O)N1CCN(c2cccc(S(C)(=O)=O)c2)C[C@H]1C(C)(C)O` [6-1, tert-butyl (S)-2-(2-hydroxypropan-2-yl)-4-(3-(methylsulfonyl)phenyl)piperazine-1-carboxylate], for which the pEC50 in experiment [1] is less than 4.70; on LXR α LBD protein (agonist mode), less than 4.30.

In the case of `COC(=O)c1ccc(N2CCN(C(=O)OC(C)(C)C)C(c3ccccc3)C2)cc1S(C)(=O)=O` (stereo not drawn) [2-3, tert-butyl 4-(4-(methoxycarbonyl)-3-(methylsulfonyl)phenyl)-2-phenylpiperazine-1-carboxylate], the pEC50 in experiment [1] (agonist mode) was less than 4.70. Also, on LXR α LBD protein (agonist mode), the pEC50 is 4.46 and the “FRET LXRα efficacy” value came out at 102%.

As to `CC1(c2ccccc2)CN(c2cccc(S(C)(=O)=O)c2)CCN1Cc1ccc(C(F)(F)F)nc1` (stereo not drawn) [46-49, 2-methyl-4-(3-(methylsulfonyl)phenyl)-2-phenyl-1-((6-(trifluoromethyl)pyridin-3-yl)methyl)piperazine], the “Cell LXRα efficacy” value in experiment [1] is 3237 (12) %. Besides, the pEC50 in experiment [1] (agonist mode) was 5.49. For the same compound, on LXR α LBD protein (agonist mode), the pEC50 was 6.58 and the “FRET LXRα efficacy” value is 10%.

Regarding `CS(=O)(=O)c1cccc(N2CCN(CC3CCN(CC(F)(F)F)CC3)[C@H](c3ccccc3)C2)c1` (single isomer, unassigned) [48-51], the pEC50 in experiment [1] (Biological Test Example 2, agonist mode) is less than 4.70. For the same compound, at LXR α LBD protein (setting [2]), the pEC50 is 5.03 and the “FRET LXRα efficacy” value is on record as 37%.

In the case of `CC(C)(C)OC(=O)N1CCN(c2cccc(S(C)(=O)=O)c2)C[C@@H]1c1ccccc1` [1-6, tert-butyl (S)-4-(3-(methylsulfonyl)phenyl)-2-phenylpiperazine-1-carboxylate], the pEC50 in experiment [1] (agonist mode) is less than 4.70. At LXR α LBD protein (agonist mode), the pEC50 was 5.08 and the “FRET LXRα efficacy” value was 14%.

On to `COC(=O)c1ccc(N2CCN(Cc3ccc(C(F)(F)F)nc3)C(c3ccccc3)C2)cc1S(C)(=O)=O` (stereo not drawn) [46-59, methyl 2-(methylsulfonyl)-4-(3-phenyl-4-((6-(trifluoromethyl)pyridin-3-yl)methyl)piperazin-1-yl)benzoate], for which the “FRET LXRα efficacy” value on LXR α LBD protein (agonist mode) was 109%.

Regarding `CC(C)[C@@H]1CN(c2ccc(C#N)c(S(C)(=O)=O)c2)CCN1c1cccc(C(F)(F)F)n1` [7-38, (R)-4-(3-isopropyl-4-(6-(trifluoromethyl)pyridin-2-yl)piperazin-1-yl)-2-(methylsulfonyl)benzonitrile], in experiment [1], the “Cell LXRα efficacy” value is recorded as 2960 (86) %. Also, the pEC50 in experiment [1] (agonist mode) is 5.53. At LXR α LBD protein (agonist mode), the pEC50 was 5.50 and the “FRET LXRα efficacy” value is 204%.

On to `CS(=O)(=O)c1cccc(N2CCN(c3ccc(C(F)(F)F)cn3)[C@@H](c3ccccc3)C2)c1` [7-40, (S)-4-(3-(methylsulfonyl)phenyl)-2-phenyl-1-(5-(trifluoromethyl)pyridin-2-yl)piperazine], for which, in experiment [1] (agonist mode), the negative-log EC50 (pEC50) was less than 4.70. Further, on LXR α LBD protein (agonist mode), the pEC50 is 4.35 and the “FRET LXRα efficacy” value amounted to 70%.

With `CS(=O)(=O)c1cccc(N2CCN(Cc3ccccc3)C(c3ccccc3)C2)c1` (stereo not drawn) [46-4, 1-benzyl-4-(3-(methylsulfonyl)phenyl)-2-phenylpiperazine], the pEC50 in experiment [1] (agonist mode) is less than 4.70. For the same compound, on LXR α LBD protein (agonist mode), the pEC50 is 6.06 and the “FRET LXRα efficacy” value is on record as 41%.

For the compound `CC(C)[C@@H]1CN(c2ccc(C#N)c(S(C)(=O)=O)c2)CCN1C(=O)OC(C)(C)C` [Cpd No 3-1, tert-butyl (R)-4-(4-cyano-3-(methylsulfonyl)phenyl)-2-isopropylpiperazine-1-carboxylate], in experiment [1], the “Cell LXRα efficacy” value is given as 12810 (20) %. The pEC50 in experiment [1] (agonist mode) is 4.89. Moreover, at LXR α LBD protein (agonist mode), the pEC50 was 4.75 and the “FRET LXRα efficacy” value was determined as 76%.

Consider `Cc1cc(CN2CCN(c3cccc(S(C)(=O)=O)c3)CC2c2ccccc2)cnc1C(F)(F)F` (stereo not drawn) [46-48, 1-((5-methyl-6-(trifluoromethyl)pyridin-3-yl)methyl)-4-(3-(methylsulfonyl)phenyl)-2-phenylpiperazine], for which, at LXR α LBD protein (agonist mode), the “FRET LXRα efficacy” value was determined as 47%.

Take `CC(C)[C@@H]1CN(c2ccc(C(N)=O)c(S(C)(=O)=O)c2)CCN1C(=O)OC(C)(C)C` [4-1, tert-butyl (R)-4-(4-carbamoyl-3-(methylsulfonyl)phenyl)-2-isopropylpiperazine-1-carboxylate]: in experiment [1], the “Cell LXRα efficacy” value is given as 15676 (21) % and the pEC50 is 4.80. Also, on LXR α LBD protein (agonist mode), the pEC50 was 4.84 and the “FRET LXRα efficacy” value is reported as 68%.

As for `CS(=O)(=O)c1cccc(N2CCN(C[C@H]3CC[C@@H](C(F)F)CC3)[C@H](c3ccccc3)C2)c1` (single isomer, unassigned) [48-16], in experiment [1], the “Cell LXRα efficacy” value is 2437 (10) % and the pEC50 was 5.61. Besides, on LXR α LBD protein (agonist mode), the pEC50 is 5.61 and the “FRET LXRα efficacy” value amounted to 17%.

With `CC(C)(C)OC(=O)N1CCN(c2cccc(S(C)(=O)=O)c2)CC1c1ccc(Br)cc1` (stereo not drawn) [1-12, tert-butyl 2-(4-bromophenyl)-4-(3-(methylsulfonyl)phenyl)piperazine-1-carboxylate], the “FRET LXRα efficacy” value at LXR α LBD protein (agonist mode) is 46%.

As to `Cc1nc(C(F)(F)F)ccc1CN1CCN(c2cccc(S(C)(=O)=O)c2)CC1c1ccccc1` (stereo not drawn) [46-47, 1-((2-methyl-6-(trifluoromethyl)pyridin-3-yl)methyl)-4-(3-(methylsulfonyl)phenyl)-2-phenylpiperazine], on LXR α LBD protein (agonist mode), the “FRET LXRα efficacy” value turned out to be 51%.

One may read the pEC50 as −log10 of the EC50, conventionally taken in molar units.

The record behind these values is patent US10144715B2, “Piperazine derivatives as liver X receptor modulators” (priority 2014, dated 2018).
